Laboratory results reported in paper PMC12023740, “Semi-synthesis and biological activities of heterocyclic compounds containing camphor” (RSC Advances, 2025).

Columns and labels:
[1] = system: MCF-7 breast carcinoma cells; test: MTT cytotoxicity assay, MCF-7; format: cell-based, human; conditions: mean ± SD of three experiments
Experimental: (§1) MCF-7 Adenocarcinoma of the breast in humans and A549 […] lines of cells (purchased from Labco's Sigma-Aldrich) were employed to evaluate the newly synthesized compounds' anti-cancer potential. […] The American type culture collection provided the cell lines and were cultured in 10% FBS added to DMEM (Invitrogen/Life Technologies) (Hyclone), a 10 μg ml^−1 of insulin (Sigma), and a 1% penicillin-streptomycin. The suppliers of all other chemicals and reagents were either Invitrogen or Sigma.
(§2) For the MTT assay, cells were plated at a density of 1.2 to 1.8 × 10 000 cells per well in a total volume of 200 μl, comprising 100 μl of a full growing medium and 100 μl of the substance that was evaluated in each well. The cells were then incubated for 24 hours.
(§3) Aspirate the cells gently using a pipette after adding 6.0 to 8.0 ml of full growth media. […] Transfer the proper aliquots to new culture vessels, discard the supernatant, and resuspend the cell pellet in fresh growth media. For a full day, incubate the cultures at 37 °C. […] To perform the MTT assay, examine the plates using an inverted microscope.
(§4) Additionally, incorporate a blank control containing complete medium without any cells. Remove the cultures from the incubator and transfer them to a laminar flow hood or sterile workspace. […] Add the reconstituted MTT in an amount equal to 10% of the total volume of the culture medium. Return the cultures to the incubator for 2 to 4 hours, depending on the cell type and maximum cell density; typically, 2 hours is adequate, though longer incubation may be required for low-density or less metabolically active cells. It is important to maintain consistent incubation times for accurate comparisons.
(§5) Gentle mixing with a gyratory shaker will facilitate the dissolution of the crystals. In denser cultures, pipetting up and down may be necessary to ensure complete dissolution of the MTT formazan crystals. Measure the absorbance spectrophotometrically at 570 nm and assess the background absorbance of the multi-well plates at 690 nm, which should be subtracted from the 570 nm measurement. The tests in multi-well plates can be read using an appropriate plate reader, or the contents can be transferred to cuvettes for measurement.

[2] = system: A549 lung cancer cells; test: MTT cytotoxicity assay, A549; format: cell-based, human; conditions: mean ± SD of three experiments
Experimental: as §1, §2, §3, §4, §5

[3] = biological target: T1, EGFR^WT (Homo sapiens, UniProt P00533); test: EGFR Kinase Assay Kit (Catalog # 40321), Kinase-Glo Max luminescence; format: biochemical; conditions: five concentrations, read-out: EGFR kinase inhibitory activity IC50
T1 construct: purchased 40321
T1 sequence (P00533 668-1210 limits assumed): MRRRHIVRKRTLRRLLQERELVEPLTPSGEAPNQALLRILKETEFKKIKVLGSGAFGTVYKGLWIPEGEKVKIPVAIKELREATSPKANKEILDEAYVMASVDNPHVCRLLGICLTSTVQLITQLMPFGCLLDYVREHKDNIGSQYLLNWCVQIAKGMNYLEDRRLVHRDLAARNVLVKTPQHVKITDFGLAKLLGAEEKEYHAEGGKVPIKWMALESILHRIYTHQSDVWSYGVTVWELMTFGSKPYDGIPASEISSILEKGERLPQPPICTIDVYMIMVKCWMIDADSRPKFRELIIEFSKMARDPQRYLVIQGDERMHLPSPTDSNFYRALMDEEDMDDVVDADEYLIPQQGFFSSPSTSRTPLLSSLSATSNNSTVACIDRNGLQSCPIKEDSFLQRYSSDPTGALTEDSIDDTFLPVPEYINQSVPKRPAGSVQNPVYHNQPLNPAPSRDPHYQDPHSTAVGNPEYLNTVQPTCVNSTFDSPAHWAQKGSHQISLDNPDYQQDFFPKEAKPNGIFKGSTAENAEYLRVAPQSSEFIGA

## CC12CCC(C3(C1)NC(=S)NC(=N)C3C#N)C2(C)C (stereo not shown) [Compound 6, 6′-Imino-4,7,7-trimethyl-2′-thioxotetrahydro-1′H-spiro[bicyclo[2.2.1]heptane-2,4′-pyrimidine]-5′-carbonitrile]
[1]; Homo sapiens, MCF7, MTT test
  IC50: 19.9 ± 0.73 µM
[2]; Homo sapiens, A549, MTT test
  IC50: 28.5 ± 0.99 µM

## CC12CCC(C3(C1)NC(=S)NC(=O)C3C#N)C2(C)C (stereo not shown) [Compound 7, 4,7,7-Trimethyl-6′-oxo-2′-thioxotetrahydro-1′H-spiro[bicyclo[2.2.1]heptane-2,4′-pyrimidine]-5′-carbonitrile]
[1]; Homo sapiens, MCF7, MTT test
  IC50: 10.1 ± 0.39 µM
[2]; Homo sapiens, A549, MTT test
  IC50: 22.2 ± 0.77 µM

## CC(=O)C1C(=O)NC(=S)NC12CC1(C)CCC2C1(C)C (stereo not shown) [Compound 8, 5′-Acetyl-4,7,7-trimethyl-2′-thioxodihydro-1′H-spiro[bicyclo[2.2.1]heptane-2,4′-pyrimidin]-6′(5′H)-one]
[1]; Homo sapiens, MCF7, MTT test
  IC50: 6.15 ± 0.23 µM
[2]; Homo sapiens, A549, MTT test
  IC50: 3.34 ± 0.12 µM

## CC12CCC(C3(C1)NC(=O)NC(=N)C3C#N)C2(C)C (stereo not shown) [Compound 10, 6′-Imino-4,7-trimethyl-2′-oxotetrahydro-1′H-spiro[bicyclo[2.2.1]heptane-2,4′-pyrimidine]-5′-carbonitrile]
[1]; Homo sapiens, MCF7, MTT test
  IC50: 12.7 ± 0.47 µM
[2]; Homo sapiens, A549, MTT test
  IC50: 23.3 ± 0.81 µM

## CC12CCC(C3(C1)NC(=O)NC(=O)C3C#N)C2(C)C (stereo not shown) [Compound 11, 4,7,7-Trimethyl-2′,6′-dioxotetrahydro-1′H-spiro[bicyclo[2.2.1]heptane-2,4′-pyrimidine]-5′-carbonitrile]
[1]; Homo sapiens, MCF7, MTT test
  IC50: 35 ± 1.32 µM
[2]; Homo sapiens, A549, MTT test
  IC50: 56.6 ± 2.01 µM

## CC(=O)C1C(=O)NC(=O)NC12CC1(C)CCC2C1(C)C (stereo not shown) [Compound 12, 5′-Acetyl-4,7,7-trimethyl-1′H-spiro[bicyclo[2.2.1]heptane-2,4′-pyrimidine]-2′,6′(3′H,5′H)-dione]
[1]; Homo sapiens, MCF7, MTT test
  IC50: 3.2 ± 0.12 µM
[2]; Homo sapiens, A549, MTT test
  IC50: 14.4 ± 0.5 µM

## Cc1ccc(-c2cs/c(=N/N=C3/CC4CCC3(C)C4(C)C)[nH]2)cc1 (stereo not shown) [Compound 16a]
[1]; Homo sapiens, MCF7, MTT test
  IC50: 2.16 ± 0.08 µM
[2]; Homo sapiens, A549, MTT test
  IC50: 4.13 ± 0.14 µM

## CC12CCC(C/C1=N/N=c1\[nH]c(-c3ccc(Cl)cc3)cs1)C2(C)C (stereo not shown) [Compound 16b]
[1]; Homo sapiens, MCF7, MTT test
  IC50: 8.29 ± 0.3 µM
[2]; Homo sapiens, A549, MTT test
  IC50: 15.2 ± 0.53 µM

## CC12CCC(C/C1=N/N=c1\[nH]c(-c3ccc(Br)cc3)cs1)C2(C)C (stereo not shown) [Compound 16c]
[1]; Homo sapiens, MCF7, MTT test
  IC50: 2.84 ± 0.1 µM
[2]; Homo sapiens, A549, MTT test
  IC50: 1.29 ± 0.04 µM

## CC12CCC(C/C1=N/N=C/c1cn(-c3ccc(S(N)(=O)=O)cc3)nc1-c1ccc(Br)cc1)C2(C)C (stereo not shown) [Compound 20]
[1]; Homo sapiens, MCF7, MTT test
  IC50: 0.78 ± 0.03 µM
[2]; Homo sapiens, A549, MTT test
  IC50: 1.69 ± 0.06 µM
[3]
  IC50: 0.198 µM

## Cc1nc(Nc2ncc(C(=O)Nc3c(C)cccc3Cl)s2)cc(N2CCN(CCO)CC2)n1 [Dasatinib, reference compound]
[1]; Homo sapiens, MCF7, MTT test
  IC50: 7.99 ± 0.29 µM
[2]; Homo sapiens, A549, MTT test
  IC50: 11.8 µM
[2]; MTT test
  IC50: 11.8 ± 0.41 µM

## COc1cccc2c1C(=O)c1c(O)c3c(c(O)c1C2=O)C[C@@](O)(C(=O)CO)C[C@@H]3O[C@H]1C[C@H](N)[C@H](O)[C@H](C)O1 [Doxorubicin, reference compound]
[1]; Homo sapiens, MCF7, MTT test
  IC50: 3.1 µM
[1]; MTT test
  IC50: 3.12 ± 0.11 µM
[2]; Homo sapiens, A549, MTT test
  IC50: 2.43 ± 0.08 µM

## C#Cc1cccc(Nc2ncnc3cc(OCCOC)c(OCCOC)cc23)c1 [Erlotinib, reference compound]
[1]; Homo sapiens, MCF7, MTT test
  IC50: 13.9 ± 1.3 µM
